{"source": "paper PMC4503722", "about": "“Novel Phenotypic Outcomes Identified for a Public Collection of Approved Drugs from a Publicly Accessible Panel of Assays” (PLoS ONE, 2015)", "key": {"HeLa cells": {"system": "HeLa cells", "assay": "cells", "assay_type": "cell-based", "details": "read-out: CellCycle G2/M"}, "INS-1E cells": {"system": "INS-1E cells", "assay": "cells", "assay_type": "cell-based, rat", "details": "for EC50: read-out: Insulin Secretion; for 5mMGluc_INS1E SecretionMod IC50/EC50: assay number 8"}, "NCI-H716 cells": {"system": "NCI-H716 cells", "assay": "cells", "assay_type": "cell-based, Human"}, "HCT116": {"system": "HCT116", "assay": "cells", "assay_type": "cell-based"}, "[1]": {"system": "nuclear β-catenin in C2C12 cells", "assay": "cells", "assay_type": "cell-based"}, "[2]": {"system": "HCT116 cells treated with a GSK3β inhibitor", "assay": "cells", "assay_type": "cell-based"}, "SW480": {"system": "SW480", "assay": "cells", "assay_type": "cell-based"}, "DLD-1": {"system": "DLD-1", "assay": "cells", "assay_type": "cell-based"}, "[3]": {"system": "endothelial tube formation in co-cultures of ECFCs and ADSCs treated with VEGF", "assay": "cells", "assay_type": "cell-based, human", "details": "for IC50: read-out: Anti-Angiogenesis"}, "Colo320": {"system": "Colo320", "assay": "cells", "assay_type": "cell-based"}, "RKO": {"system": "RKO", "assay": "cells", "assay_type": "cell-based"}, "SNU-C1": {"system": "SNU-C1", "assay": "cells", "assay_type": "cell-based"}, "[4]": {"system": "ECFC/ADSC co-culture cell nuclei number"}, "HT-29": {"system": "HT-29", "assay": "cells", "assay_type": "cell-based", "details": "assay number 28; basal"}, "[5]": {"details": "read-out: Basal_Viability ATP HCT116"}, "[6]": {"details": "Homo sapiens, HCT-116, GSK3b inhibitor pretreated, read-out: GSK3b inh pretreated_Viability ATP HCT116"}, "[7]": {"details": "Homo sapiens, HeLa, IC50 / EC50, HeLa"}, "[8]": {"details": "Rattus norvegicus, IC50 / EC50, INS-1E"}, "[9]": {"details": "Homo sapiens, SW480, basal, read-out: Basal_Viability ATP SW480"}, "[10]": {"details": "Homo sapiens, HCT-116, basal, read-out: Basal_Viability ATP HCT116"}, "[11]": {"details": "Mus musculus, C2C12, IC50 / EC50, C2C12 beta-catenin translocation, read-out: Wnt Pathway"}, "[12]": {"details": "Homo sapiens, DLD-1, read-out: Basal_Viability ATP DLD-1"}}, "note": "Like-named read-outs stand apart in the source and are kept apart here.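 Throughout, for 5mMGluc INS1E SecretionMod IC50/EC50: secreted insulin quantified by homogeneous immunoassay.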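 Throughout, for IC50/EC50, 5mMGluc INS1E SecretionMod (assay number 8): secreted insulin quantified by homogeneous immunoassay.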", "data": [{"compound": "Oc1c(Cl)cc(Cl)c(Cl)c1Cc1c(O)c(Cl)cc(Cl)c1Cl", "values": [{"measurement": "EC50", "setting": "HeLa cells", "value": "> 10", "unit": "µM"}, {"measurement": "EC50", "setting": "INS-1E cells", "value": "> 10", "unit": "µM"}, {"measurement": "EC50", "setting": "NCI-H716 cells; read-out: GLP 1 Secretion", "value": "> 10", "unit": "µM"}, {"measurement": "IC50", "setting": "HCT116; [5]", "value": 0.0312, "unit": "µM"}, {"measurement": "EC50", "setting": "[1]; read-out: Wnt Pathway", "value": "> 10", "unit": "µM"}]}, {"compound": "O=C(CCBr)N1CCN(C(=O)CCBr)CC1", "note": "[Abbott brand of pipobroman]", "values": [{"measurement": "IC50", "setting": "[2]; read-out: GSK3b inh pretreated_Viability ATP HCT116", "value": 14, "unit": "µM"}, {"measurement": "EC50", "setting": "HeLa cells", "value": "> 10", "unit": "µM"}, {"measurement": "EC50", "setting": "INS-1E cells", "value": "> 10", "unit": "µM"}, {"measurement": "IC50", "setting": "SW480; read-out: Basal_Viability ATP SW480", "value": "> 20", "unit": "µM"}, {"measurement": "IC50", "setting": "HCT116; [5]", "value": "> 20", "unit": "µM"}, {"measurement": "EC50", "setting": "[1]; read-out: Wnt Pathway", "value": "> 10", "unit": "µM"}, {"measurement": "IC50", "setting": "DLD-1; read-out: Basal_Viability ATP DLD-1", "value": "> 20", "unit": "µM"}, {"measurement": "IC50", "setting": "[3]", "value": 1.37, "unit": "µM"}]}, {"compound": "Cc1ccc(CCn2c3c(c4cc(Cl)ccc42)CN(C)CC3)cn1", "note": "[Dorastine]", "values": [{"measurement": "IC50", "setting": "[2]; [6]", "value": "> 20", "unit": "µM"}, {"measurement": "EC50", "setting": "HeLa cells; [7]", "value": "> 10", "unit": "µM"}, {"measurement": "EC50", "setting": "INS-1E cells; [8]", "value": 4.2, "unit": "µM"}, {"measurement": "IC50", "setting": "SW480; [9]", "value": 9.46, "unit": "µM"}, {"measurement": "IC50", "setting": "HCT116; [10]", "value": 13.4, "unit": "µM"}, {"measurement": "EC50", "setting": "[1]; [11]", "value": "> 10", "unit": "µM"}, {"measurement": "IC50", "setting": "DLD-1; Homo sapiens, DLD-1, basal, read-out: Basal_Viability ATP DLD-1", "value": "> 20", "unit": "µM"}, {"measurement": "IC50", "setting": "[3]; Homo sapiens, IC50 / EC50, endothelial tube area, ADSC/ECFC co-culture", "value": "> 10", "unit": "µM"}]}, {"compound": "CCN(CC)CCCC(C)Nc1c2ccc(Cl)cc2nc2ccc(OC)cc12", "note": "(stereo not shown) [Mepacrine]", "values": [{"measurement": "IC50", "setting": "[2]; [6]", "value": 4.48, "unit": "µM"}, {"measurement": "IC50", "setting": "Colo320; Homo sapiens, COLO 320, read-out: Basal_Viability ATP Colo 320", "value": 8.44, "unit": "µM"}, {"measurement": "EC50", "setting": "HeLa cells; [7]", "value": "> 10", "unit": "µM"}, {"measurement": "EC50", "setting": "INS-1E cells; [8]", "value": 4.07, "unit": "µM"}, {"measurement": "IC50", "setting": "SW480; [9]", "value": 3.6, "unit": "µM"}, {"measurement": "IC50", "setting": "RKO; Homo sapiens, RKO, read-out: Basal_Viability ATP RKO", "value": 3.42, "unit": "µM"}, {"measurement": "IC50", "setting": "HCT116; [10]", "value": 5.81, "unit": "µM"}, {"measurement": "EC50", "setting": "[1]; [11]", "value": "> 10", "unit": "µM"}, {"measurement": "IC50", "setting": "DLD-1; [12]", "value": 7.15, "unit": "µM"}, {"measurement": "IC50", "setting": "SNU-C1; Homo sapiens, SNU-C1, basal, read-out: Basal_Viability ATP SNU-C1", "value": 3.84, "unit": "µM"}]}, {"compound": "CN(C)c1ccc2nc3ccc(=[N+](C)C)cc-3sc2c1", "note": "[Methylene blue]", "values": [{"measurement": "IC50", "setting": "[2]; Homo sapiens, HCT-116, read-out: GSK3b inh pretreated_Viability ATP HCT116", "value": 1.39, "unit": "µM"}, {"measurement": "EC50", "setting": "INS-1E cells; Rattus norvegicus, INS-1E", "value": "> 10", "unit": "µM"}, {"measurement": "IC50", "setting": "SW480; Homo sapiens, SW480, read-out: Basal_Viability ATP SW480", "value": 2.68, "unit": "µM"}, {"measurement": "IC50", "setting": "HCT116; Homo sapiens, HCT-116, read-out: Basal_Viability ATP HCT116", "value": 2.93, "unit": "µM"}, {"measurement": "EC50", "setting": "[1]; Mus musculus, C2C12, read-out: Wnt Pathway", "value": "> 10", "unit": "µM"}, {"measurement": "IC50", "setting": "DLD-1; [12]", "value": "> 20", "unit": "µM"}]}, {"compound": "Clc1ccc(COC(Cn2ccnc2)c2ccc(Cl)cc2Cl)cc1.O=[N+]([O-])O", "note": "(stereo not shown) [NCGC00018258-10]", "values": [{"measurement": "VEGF_ADSC\\ECFC Angio Hoechst NucArea IC50/EC50", "setting": "[4]", "value": 9.932, "unit": "µM"}, {"measurement": "hNCI-H716 GLP1 Secretion IC50/EC50", "setting": "NCI-H716 cells; assay number 12", "value": 25.6136, "unit": "µM"}]}, {"compound": "O=C1NCN(c2ccccc2)C12CCN(CCCOc1ccc(F)cc1)CC2", "note": "[NCGC00024633-07]", "values": [{"measurement": "GSK3b inh pretreated_Viability ATP HCT116 IC50/EC50", "setting": "[2]; assay number 26, GSK3b inhibitor pretreated", "value": 5.333, "unit": "µM"}, {"measurement": "Basal_Viability ATP Colo 320 IC50/EC50", "setting": "Colo320; assay number 27, basal", "value": 11.821, "unit": "µM"}, {"measurement": "Basal_Viability ATP HT-29 IC50/EC50", "setting": "HT-29", "value": 2.458, "unit": "µM"}, {"measurement": "5mMGluc_INS1E SecretionMod IC50/EC50", "setting": "INS-1E cells; 5 mM glucose", "value": "> 33.33", "unit": "µM"}, {"measurement": "Basal_Viability ATP SW480 IC50/EC50", "setting": "SW480; assay number 24, basal", "value": 4.608, "unit": "µM"}, {"measurement": "Basal_Viability ATP RKO IC50/EC50", "setting": "RKO; assay number 29, basal", "value": 5.3051, "unit": "µM"}, {"measurement": "Basal_Viability ATP HCT116 IC50/EC50", "setting": "HCT116; assay number 25, basal", "value": 8.82, "unit": "µM"}, {"measurement": "Basal_Viability ATP DLD-1 IC50/EC50", "setting": "DLD-1; assay number 23, basal", "value": 0.8817, "unit": "µM"}, {"measurement": "Basal_Viability ATP SNU-C1 IC50/EC50", "setting": "SNU-C1; assay number 30, basal", "value": 0.2416, "unit": "µM"}]}, {"compound": "Cc1ccc(C(=O)Nc2ccc(S(=O)(=O)O)c3cc(S(=O)(=O)O)cc(S(=O)(=O)O)c23)cc1NC(=O)c1cccc(NC(=O)Nc2cccc(C(=O)Nc3cc(C(=O)Nc4ccc(S(=O)(=O)O)c5cc(S(=O)(=O)O)cc(S(=O)(=O)O)c45)ccc3C)c2)c1", "note": "[NCGC00025177-08]", "values": [{"measurement": "IC50/EC50, hNCI-H716 GLP1 Secretion (assay number 12)", "setting": "NCI-H716 cells; concentration response", "value": "> 40", "unit": "µM"}]}, {"compound": "OCCOc1ccccc1", "note": "[NCGC00090731-08]", "values": [{"measurement": "assay 7 5mMGluc INS1E InsulinRelease max %stim", "setting": "INS-1E cells; single concentration screen (2 and 10 μM), 5 mM glucose, maximum of all test results", "value": 0.2, "unit": "%"}, {"measurement": "assay 11 hNCI-H716 GLP1 Secretion max %stim", "setting": "NCI-H716 cells; single concentration screen (2 or 10 μM), maximum of all test results", "value": 3.7, "unit": "%"}, {"measurement": "assay 4 WntCondMedia bCatenin fluor/nucarea C2C12 max %stim", "setting": "[1]; single concentration screen (2 and 10 μM), maximum of all test results", "value": 0.5, "unit": "%"}, {"measurement": "assay 1 Angio CD31 TubeArea max %inh", "setting": "[3]; single concentration screen (2 and 10 μM), maximum of all test results, 0 = DMSO, 100 = positive control", "value": 8.6, "unit": "%"}]}, {"compound": "CN(C)CCN1C(=O)c2ccccc2N(C)c2ccccc21", "note": "[NCGC00160395-04]", "values": [{"measurement": "IC50/EC50, 5mMGluc_INS1E SecretionMod (assay number 8)", "setting": "INS-1E cells; 5 mM glucose", "value": "> 33.33", "unit": "µM"}]}, {"compound": "CN1CCN(CCC(=O)N2c3ccccc3Sc3ccc(C(F)(F)F)cc32)CC1", "note": "[NCGC00160483-02]", "values": [{"measurement": "5mMGluc_INS1E SecretionMod IC50/EC50", "setting": "INS-1E cells; 5 mM glucose", "value": "> 11.11", "unit": "µM"}]}, {"compound": "CCCC(CCC)C(=O)O", "note": "[NCGC00162288-07]", "values": [{"measurement": "IC50/EC50, 5mMGluc_INS1E SecretionMod (assay number 8)", "setting": "INS-1E cells; 5 mM glucose", "value": "> 33.33", "unit": "µM"}]}, {"compound": "O=C(CCN1CCN2CCCC2C1)N1c2ccccc2Sc2ccc(Cl)cc21", "note": "(stereo not shown) [NCGC00164539-02]", "values": [{"measurement": "5mMGluc_INS1E SecretionMod IC50/EC50", "setting": "INS-1E cells; 5 mM glucose", "value": 16.7552, "unit": "µM"}]}, {"compound": "CCCN1CCCC[C@H]1C(=O)Nc1c(C)cccc1C", "note": "[NCGC00164597-02]", "values": [{"measurement": "5mMGluc_INS1E SecretionMod IC50/EC50", "setting": "INS-1E cells; 5 mM glucose", "value": "> 33.33", "unit": "µM"}]}]}
